Our source for the inhibition values is patent US9884832B2 (priority 2011, dated 2018).

Usually inhibition stands for how much of the control response was suppressed.

Each structure is given as a SMILES string.

Chain of AM2 S31 (wild-type serine at position 31 in the M2 protein), influenza virus A/Udorn/72 (P0DOF5 whole entry, looked up): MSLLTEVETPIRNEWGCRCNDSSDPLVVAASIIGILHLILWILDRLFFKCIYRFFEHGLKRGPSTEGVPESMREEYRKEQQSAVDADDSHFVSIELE

The first assay has as its target AM2 S31 (wild-type serine at position 31 in the M2 protein), influenza virus A/Udorn/72 (Influenza A virus, UniProt P0DOF5). Put plainly: cell-based. The settings on record: 100 uM; Xenopus oocytes; activity range class; read-out: S31 OOcyte Inhibition at 100 uM (%).
Consider `Brc1ccc(CNC23CC4CC(CC(C4)C2)C3)[nH]1` [Example 88a, Adamantan-1-yl-(5-bromo-1H-pyrrol-2-ylmethyl)-amine], for which the inhibition at 100 µM lay within 31 to 95%.
`c1cc2cn[nH]c2cc1CNC12CC3CC(CC(C3)C1)C2` [Example 43a, N-((1H-indazol-6-yl)methyl)adamantan-1-amine]: the inhibition at 100 µM was in the range of 31 to 95%.
The same measure, in the same setting: as for `CCOc1ccc(CNC23CC4CC(CC(C4)C2)C3)cc1` [Example 1a, Adamantan-1-yl-(4-ethoxy-benzyl)-amine], the figure is 0 to 30%.
On the same count and under the same terms, as for `CSc1ccc(CNC23CC4CC(CC(C4)C2)C3)s1` [Example 90a], the figure is 31 to 95%; as for `OC12CC3CC(C1)CC(NCc1ccc(Br)s1)(C3)C2` [Example 188a, 3-[(5-Bromo-thiophen-2-ylmethyl)-amino]adamantan-1-ol], 0 to 30%; as for `Oc1cc(Br)ccc1CNC12CC3CC(CC(C3)C1)C2` [Example 50a, 2-(((3s,5s,7s)-adamantan-1-ylamino)methyl)-5-bromophenol], 31 to 95%.
The same measure, in the same setting: under `c1coc(-c2ccc(CNC34CC5CC(CC(C5)C3)C4)cn2)c1` [Example 60a, N-((6-(furan-2-yl)pyridin-3-yl)methyl)adamantan-1-amine] stands 0 to 30%.
In the case of `c1csc(-c2ccc(CNC34CC5CC(CC(C5)C3)C4)o2)c1` [Example 138a, Adamantan-1-yl-(5-thiophen-2-yl-furan-2-ylmethyl)-amine], the inhibition at 100 µM was 0 to 30%.
Consider `c1cncc(-c2noc(CNC34CC5CC(CC(C5)C3)C4)n2)c1` [Example 135a, Adamantan-1-yl-(3-pyridin-3-yl-[1,2,4]oxadiazol-5-ylmethyl)-amine], for which the inhibition at 100 µM was 0 to 30%.
The same measure, in the same setting: as for `Cc1ccc(CNC23CC4CC(CC(C4)C2)C3)s1` [Example 78a, N-((5-methylthiophen-2-yl)methyl)adamantan-1-amine], the figure is 31 to 95%; as for `OC12CC3CC(C1)CC(NCc1ccc(-c4ccccc4)s1)(C3)C2` [Example 191a, 3-[(5-Phenyl-thiophen-2-ylmethyl)-amino]adamantan-1-ol], 0 to 30%; as for `CC(NC12CC3CC(CC(C3)C1)C2)c1ccc(I)s1` (stereo not drawn) [Example 82a, N-(1-(5-iodothiophen-2-yl)ethyl)adamantan-1-amine], 31 to 95%.
Take `COc1ccc2[nH]c(CNC34CC5CC(CC(C5)C3)C4)cc2c1` [Example 182a]: the inhibition at 100 µM is 0 to 30%.
The same measure, in the same setting: as for `CC(NC12CC3CC(CC(C3)C1)C2)c1ccc(C#N)s1` (stereo not drawn) [Example 92a, 5-(1-(adamantan-1-ylamino)ethyl)thiophene-2-carbonitrile], the figure is 31 to 95%; as for `C(#Cc1ccccc1)CNC12CC3CC(CC(C3)C1)C2` [Example 198a, N-(3-phenylprop-2-yn-1-yl)adamantan-1-amine], 0 to 30%.
In the case of `Cc1nc(-c2ccc(CNC34CC5CC(CC(C5)C3)C4)s2)cs1` [Example 156a, N-((5-(2-methylthiazol-4-yl)thiophen-2-yl)methyl)adamantan-1-amine], the inhibition at 100 µM lay in the range of 0 to 30%.
Still for that read-out and setting: as for `O=[N+]([O-])c1ccc(CNC23CC4CC(CC(C4)C2)C3)s1` [Example 100a, N-((5-nitrothiophen-2-yl)methyl)adamantan-1-amine], the figure is 31 to 95%; as for `c1ccc2nc(CNC34CC5CC(CC(C5)C3)C4)ccc2c1` [Example 56a, Adamantan-1-yl-quinolin-2-ylmethyl-amine], 31 to 95%; as for `Fc1ccc(-c2nc(CNC34CC5CC(CC(C5)C3)C4)no2)cc1` [Example 163a], 0 to 30%.
Regarding `FC(F)(F)c1cccc(-c2nc(CNC34CC5CC(CC(C5)C3)C4)no2)c1` [Example 125a, N-((5-(3-(trifluoromethyl)phenyl)-1,2,4-oxadiazol-3-yl)methyl)adamantan-1-amine], the inhibition at 100 µM lay within 0 to 30%.
In the case of `c1ccc(-c2nc(CNC34CC5CC(CC(C5)C3)C4)no2)cc1` [Example 131a, N-((5-phenyl-1,2,4-oxadiazol-3-yl)methyl)adamantan-1-amine], the inhibition at 100 µM lay within 0 to 30%.

Staying with this assay, now noted: Table 1; 100 uM; Xenopus oocytes, pH 5.5, -20 mV; read-out: S31 OOcyte Inhibition at 100 uM (%).
As to `c1cc2sc(CNC34CC5CC(CC(C5)C3)C4)cc2s1` [Example 81, Adamantan-1-yl-thieno[3,2-b]thiophen-2-ylmethyl-amine], the inhibition at 100 µM was in the range of 31 to 95%.
Same read-out and setting: under `c1cn2cc(CNC3C4CC5CC(C4)CC3C5)nc2s1` (stereo not drawn) [Example 107, Adamantan-2-yl-imidazo[2,1-b]thiazol-6-ylmethyl-amine] stands 31 to 95%; under `Oc1cc(OCc2ccccc2)ccc1CNC12CC3CC(CC(C3)C1)C2` [Example 57, 2-(Adamantan-1-ylaminomethyl)-5-benzyloxy-phenol], 31 to 95%.
Consider `CC(=O)Nc1ccc(CNC23CC4CC(CC(C4)C2)C3)cc1` [Example 17, N-[4-(Adamantan-1-ylaminomethyl)-phenyl]-acetamide], for which the inhibition at 100 µM was in the range of 0 to 30%.
The same measure, in the same setting: under `CC(NCc1ccc(O)cc1)C12CC3CC(CC(C3)C1)C2` (stereo not drawn) [Example 4, 4-[(1-Adamantan-1-yl-ethylamino)-methyl]-phenol] stands 31 to 95%; under `Oc1ccc(CNC2C3CC4CC(C3)CC2C4)cc1` (stereo not drawn) [Example 99, 4-(Adamantan-2-ylaminomethyl)-phenol], 31 to 95%; under `c1cn2cc(CNC34CC5CC(CC(C5)C3)C4)nc2s1` [Example 86, Adamantan-1-yl-imidazo[2,1-b]thiazol-6-ylmethyl-amine], 31 to 95%.
With `COc1ccc(CNC23CC4CC(CC(C4)C2)C3)c(OC)c1` [Example 59, Adamantan-1-yl-(2,4-dimethoxy-benzyl)-amine], the inhibition at 100 µM lay within 0 to 30%.
With `[O-][n+]1ccc(CNC23CC4CC(CC(C4)C2)C3)cc1` [Example 74, Adamantan-1-yl-(1-oxy-pyridin-4-ylmethyl)-amine], the inhibition at 100 µM lay within 0 to 30%.
As to `CC(=O)Oc1ccc(CNC23CC4CC(CC(C4)C2)C3)cc1` [Example 33, Acetic acid 4-(adamantan-1-ylaminomethyl)-phenyl ester], the inhibition at 100 µM lay in the range of 31 to 95%.
With `c1cn(-c2ccc(CNC34CC5CC(CC(C5)C3)C4)cc2)cn1` [Example 36, Adamantan-1-yl-(4-imidazol-1-yl-benzyl)-amine], the inhibition at 100 µM was 0 to 30%.
Turning to `c1cc2cn[nH]c2cc1CNC12CC3CC(CC(C3)C1)C2` [Example 95, Adamantan-1-yl-(1H-indazol-6-ylmethyl)-amine], the inhibition at 100 µM is 31 to 95%.
On to `Brc1ccc(CNC23CC4CC(CC(C4)C2)C3)cc1` [Example 41, N-(4-Bromobenzyl)adamantan-1-amine], for which the inhibition at 100 µM was 31 to 95%.

Staying with this assay, now noted: Table 3; 100 uM; Xenopus oocytes, pH 5.5, -20 mV; read-out: S31 OOcyte Inhibition at 100 uM (%).
As to `CSc1ccccc1-c1cc(CNC23CC4CC(CC(C4)C2)C3)no1` [Example 42b, N-((5-(2-(methylthio)phenyl)isoxazol-3-yl)methyl)adamantan-1-amine], the inhibition at 100 µM lay within 0 to 30%.
Same read-out and setting: as for `Clc1ccc(CNC23CC4CC(CC(C4)C2)C3)cc1` [Example 1b, N-(4-Chlorobenzyl)adamantan-1-amine], the figure is 31 to 95%.
`Cc1ncc(CNC23CC4CC(CC(C4)C2)C3)s1` [Example 16b, N-((2-methylthiazol-5-yl)methyl)adamantan-1-amine]: the inhibition at 100 µM lay in the range of 0 to 30%.
`Cc1noc(C)c1-c1nc(CNC23CC4CC(CC(C4)C2)C3)no1` [Example 25b, N-((5-(3,5-dimethylisoxazol-4-yl)-1,2,4-oxadiazol-3-yl)methyl)adamantan-1-amine]: the inhibition at 100 µM was 0 to 30%.
On the same count and under the same terms, under `Fc1cc(F)cc(-c2cc(CNC34CC5CC(CC(C5)C3)C4)no2)c1` [Example 33b, N-((5-(3,5-difluorophenyl)isoxazol-3-yl)methyl)adamantan-1-amine] stands 0 to 30%; under `CSc1ccc(-c2cc(CNC34CC5CC(CC3C5)C4)no2)cc1` [Example 90b, (2R,3as,5S,6as)-N-((5-(4-(methylthio)phenyl)isoxazol-3-yl)methyl)octahydro-2,5-methanopentalen-3a-amine], 0 to 30%; under `CC(NC12CC3CC(CC(C3)C1)C2)c1ccc(-c2ccccc2)cc1` (stereo not drawn) [Example 4b, N-(1-([1,1′-biphenyl]-4-yl)ethyl)adamantan-1-amine], 31 to 95%.
Same read-out and setting: as for `CSc1ccc(-c2cc(CNC34CC5CCC(CC(C5)C3)C4)no2)cc1` [Example 91b, (1S,3R,8S)—N-((5-(4-(methylthio)phenyl)isoxazol-3-yl)methyl)tricyclo[4.3.1.13,8]undecan-1-amine], the figure is 0 to 30%; as for `Clc1nc(CNC23CC4CC(CC(C4)C2)C3)ns1` [Example 10b, N-((5-chloro-1,2,4-thiadiazol-3-yl)methyl)adamantan-1-amine], 31 to 95%; as for `O=C(CNC12CC3CC(CC(C3)C1)C2)c1cccs1` [Example 87b, 2-(adamantan-1-ylamino)-1-(thiophen-2-yl)ethanone], 31 to 95%.
On the same count and under the same terms, as for `CSc1ccccc1-c1ccc(CNC23CC4CC(CC(C4)C2)C3)cc1` [Example 66b, Adamantan-1-yl-(2′-methylsulfanyl-biphenyl-4-ylmethyl)-amine], the figure is 0 to 30%; as for `COc1ccc(Cc2nc(CNC34CC5CC(CC(C5)C3)C4)no2)cc1OC` [Example 28b, N-((5-(3,4-dimethoxybenzyl)-1,2,4-oxadiazol-3-yl)methyl)adamantan-1-amine], 0 to 30%; as for `c1c(CNC23CC4CC(CC(C4)C2)C3)noc1C1CCCCC1` [Example 32b, N-((5-cyclohexylisoxazol-3-yl)methyl)adamantan-1-amine], 0 to 30%.
With `c1ccc(-c2cnc(CNC34CC5CC(CC(C5)C3)C4)[nH]2)cc1` [Example 53b, N-((5-phenyl-1H-imidazol-2-yl)methyl)adamantan-1-amine], the inhibition at 100 µM was 0 to 30%.
